Reference: US9468646B2, “Increased dosage of efavirenz for the treatment of cancer” (Alienor Farma, priority 2013, dated 2016)
Values joined by “and” are separate entries in the source; they are usually repeats but may differ in a detail not shown here. Identical values can stand only once. Like-named read-outs stand apart in the source and are kept apart here.

Tests used:
L1-RT = conditions: human tumor cell lines; cited from earlier work
[1] = system: metastatic hormone-refractory prostate cancer; experiment: FAVE study: PSA progression at 3 months under Efavirenz; type: in vivo, human; conditions: 600 mg/day; for PSA progression (share of subjects): 3 months
Protocol: For the exploratory analysis, following the latest recommendations of the Prostate Cancer Clinical Trials Working Group (Scher, 2008), PSA progression was defined as an increase of more than 25% over the baseline and an increase in the concentrations of PSA of at least 2 ng/ml. The clinical symptoms, the number of new bone metastasis and the global response to treatment (evaluated by the RECIST criteria) were also recorded. After three months, the global response and the overall survival were evaluated in a follow up study. Patients received 600 mg of Efavirenz per day and, during Efavirenz treatment, hormone therapy was maintained. […] However, it is difficult to predict precisely the efficacious dose in humans based on preclinical data. For this reason, the goal of the FAVE study was twofold: 1. […] Explore the relationship between the dose of the compound and clinical efficacy. In order to establish the minimal efficacious dose that could be effective for the treatment of prostate cancer the inventor used a correlational approach in which plasma concentrations of Efavirenz were related to treatment efficacy measured at the three month time point. Sixty-one patients were included in the study and fifty-three patients had no violation of the eligibility criteria and received Efavirenz at least once (general population). The assessment of Efavirenz plasma concentrations was an optional exploratory objective to which the patients had to expressly consent. Plasma Efavirenz concentrations at the three month time point were available for 41 patients that were used for the exploratory analysis.

[2] = system: hormone refractory prostate cancer; experiment: FAVE follow up study: progression free survival (RECIST) and overall survival, ITT analysis; type: in vivo, human
Protocol: For the exploratory analysis, following the latest recommendations of the Prostate Cancer Clinical Trials Working Group (Scher, 2008), PSA progression was defined as an increase of more than 25% over the baseline and an increase in the concentrations of PSA of at least 2 ng/ml. The clinical symptoms, the number of new bone metastasis and the global response to treatment (evaluated by the RECIST criteria) were also recorded. After three months, the global response and the overall survival were evaluated in a follow up study. This approach was followed by an interventional approach aimed to establish a causal relationship between dose and efficacy of the treatment. In this case after three months of treatment at the 600 mg/day dose, the doses of Efavirenz were progressively raised to reach 1.2 g/day. Differences in disease progression as a function of plasma Efavirenz concentrations were confirmed in the follow up study. […] Log-rank Mantel-Cox's test, the <1500 and 1500-3000 groups were cumulated for statistical analysis). […] These thirteen patients were used to constitute the dose escalation group.

[3] = FAVE study: Efavirenz plasma concentration (UPLC-MS/MS); type: in vivo, human; conditions: 600 mg/day
Description: Sixty-one patients were included in the study and fifty-three patients had no violation of the eligibility criteria and received Efavirenz at least once (general population). The assessment of Efavirenz plasma concentrations was an optional exploratory objective to which the patients had to expressly consent. Plasma Efavirenz concentrations at the three month time point were available for 41 patients that were used for the exploratory analysis. Blood samples for the evaluation of Efavirenz plasma concentrations were taken at three months after the start of Efavirenz treatment. For Efavirenz plasma concentration determination, 10 ml of blood were collected using sodium or lithium heparinate tubes. After each blood collection, the tubes of blood were centrifuged for 5 minutes at 5000 g. Plasma was collected in polypropylene tubes. The plasma tubes of each subject were packed and stored in appropriately labelled plastic frost-resistant bags and stored at −20° C. until analysis. Samples were sent to a pharmacokinetic analysis laboratory for Efavirenz concentration analysis that was performed using a validated mass-spectrometry coupled to liquid chromatography (UPLC-MS/MS) method. […] Calibration curves were obtained by analysis of standard solutions prepared in plasma in the range 100-10000 ng/mL and limit of quantification (LOQ) was 2.5 ng/mL.

[4] = ESCALE study: Efavirenz plasma concentration depending on daily dose (UPLC-MS/MS); type: in vivo, human; conditions: for mean plasma concentration of Efavirenz: three patients
Description: The […] clinical study is a single arm, single center (Bergonie Institute), and dose escalation phase I study. Objectives of this study are to assess the safety, tolerability, and recommended dose of Efavirenz administered orally, by continuous once-daily administration in patients with solid tumors (no pancreatic cancer) and Non-Hodgkin Lymphoma (NHL) who have failed chemotherapy treatment. The scheme of the study is a dose escalation evaluated by continual reassessment method likelihood approach (O'Quickley, 1996). […] The maximal subject number assessable is 30 patients. Blood samples for the evaluation of Efavirenz plasma concentrations were taken at 14 days, 28 days after the start of Efavirenz treatment. For Efavirenz plasma concentration determination, 10 ml of blood were collected using sodium or lithium heparinate tubes. After each blood collection, the tubes of blood were centrifuged for 5 minutes at 5000 g. Plasma was collected in polypropylene tubes. The plasma tubes of each subject were packed and stored in appropriately labelled plastic frost-resistant bags and stored at -20° C. until analysis. Samples were sent to a pharmacokinetic analysis laboratory for Efavirenz concentration analysis that was performed using a validated mass-spectrometry coupled to liquid chromatography (UPLC-MS/MS) method. […] The sample was vortex-mixed for 30 sec, and then 5 mL of diethyl ether was added. After 15 min under agitation, the organic and aqueous phases were separated by centrifugation at 3000 rpm for 10 min. […] The residue was re-dissolved in 150 μL of methanol. The UPLC-MS/MS unit consisted of Waters ACQUITY UPLC® instrument coupled with an Acquity TQD® detector. Separations were performed at 40° C. on an Acquity UPLC® BEH C18 column (50*2.1 mm) at a flow rate of 0.3 mL/min. Gradient elution was performed over 2.3 minutes using a combination of acetonitrile and ammonium formate buffer (4 mM) as mobile phase. […] Calibration curves were obtained by analysis of standard solutions prepared in plasma in the range 100-10000 ng/mL and limit of quantification (LOQ) was 2.5 ng/mL.

[5] = Pharmacokinetic study in rats (Balani et al 1999); type: in vivo; conditions: rat, intravenous injection of 5 mg/kg, converted from μM
[6] = cited from earlier work
[7] = rat, intravenous injection of 5 mg/kg; cited from earlier work

SMILES	reverse transcriptase activity of L1-RT (L1-RT)	PSA progression (share of subjects) ([1]; plasma Efavirenz 1500-3000 ng/ml group, N=22)	PSA progression (share of subjects) ([1]; plasma Efavirenz <1500 ng/ml group, N=12)	non-progressions for PSA levels at 3 months (share of patients) ([1]; all treated patients, N=53)	patients in whom the disease continued to progress (PSA) at 3 months ([1]; all treated patients, N=53)	median progression free survival ([2]; dose escalation group: up to 1200 mg/day, originally <3000 ng/ml, 13 patients)	median progression free survival ([2]; low (<1500 ng/ml) and intermediate (1500-3000 ng/ml) groups cumulated)	median progression free survival ([2]; plasma Efavirenz 1500-3000 ng/ml group)	median progression free survival ([2]; plasma Efavirenz <1500 ng/ml group)	median progression free survival ([2]; plasma Efavirenz <3000 ng/ml, no dose escalation (600 mg/day))	median progression free survival ([2]; plasma Efavirenz >3000 ng/ml group)	patients with Efavirenz plasma concentration of at least 1500 ng/ml ([3]; 3 months, 41 patients)	concentration at 3 months ([3]; human, plasma, cancer patients)	mean plasma concentration of Efavirenz ([4]; 1800 mg/day)	mean plasma concentration of Efavirenz ([4]; 2200 mg/day)	patients with Efavirenz plasma concentration of at least 3000 ng/ml ([4]; daily dose between 1800 and 2200 mg)	maximal plasma concentration [5]	subjects with plasma concentrations above 1500 ng/ml ([6]; 600 mg/day (Marzolini, 2001))	Efavirenz plasma concentration reached ([6]; 600 mg/day, patients with two loss or decrease of function CYP2B6 alleles (Rotger, 2007))	maximal plasma concentration [7]
Cc1ccnc2c1NC(=O)c1cccnc1N2C1CC1 [Nevirapine]	able to inhibit	–	–	–	–	–	–	–	–	–	–	–	–	–	–	–	–	–	–	–
O=C1Nc2ccc(Cl)cc2[C@@](C#CC2CC2)(C(F)(F)F)O1 [Efavirenz]	–	81.8%	83.3%	28%	72%	10 months	3 months	3 months	3 months	3 months	17 months	70%	2140 ng/mL	3712 ng/mL and > 3000 ng/mL and > 3500 ng/mL	7364 ng/mL and > 6500 ng/mL	84%	1578 ng/mL	70-80%	at least 3000 ng/ml	5 µM
